Structures are written as SMILES. Bounds are passed on as bounds.

The values below come from patent publication US9809578B2, “Pyrazolyl urea, thiourea, guanidine and cyanoguanidine compounds as trkA kinase inhibitors” (Array BioPharma Inc., priority 2012, dated 2017).

The target in this assay is T1, His-tagged recombinant human TrkA (Homo sapiens, UniProt P04629).
T1 construct: 6HIS tagged cytoplasmic domain from Invitrogen, Cat. No. PV3144; purchased Invitrogen PV3144
T1 sequence (P04629 440-796 limits assumed): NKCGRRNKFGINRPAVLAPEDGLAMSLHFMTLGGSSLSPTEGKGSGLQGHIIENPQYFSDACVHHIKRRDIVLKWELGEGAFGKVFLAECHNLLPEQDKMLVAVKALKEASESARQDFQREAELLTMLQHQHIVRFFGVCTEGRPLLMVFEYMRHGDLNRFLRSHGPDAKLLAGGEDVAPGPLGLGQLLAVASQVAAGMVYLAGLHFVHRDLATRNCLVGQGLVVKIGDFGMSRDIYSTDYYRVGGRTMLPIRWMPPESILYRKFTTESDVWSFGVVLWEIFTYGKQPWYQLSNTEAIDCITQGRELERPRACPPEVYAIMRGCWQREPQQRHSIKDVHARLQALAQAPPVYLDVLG
Kind of assay: TrkA LanthaScreen Eu Kinase Binding Assay. As to conditions: averaged IC50; LanthaScreen Eu kinase binding, TR-FRET; read-out: TrkA enzyme IC50. The procedure:
TrkA binding activity was determined in a TrkA LanthaScreen™ Eu Kinase Binding Assay. […] Three fold serial dilutions of compounds of the invention in DMSO were added to a final percentage of 2% DMSO. […] The percent of control was calculated using a ratiometric emission factor. The IC50 values were determined by fitting a four parameter model to the percent of control data.
For orientation: TR-FRET usually uses a lanthanide donor and a delayed reading to cut background.
Take `Cc1c(-c2cnn(C)c2)nn(-c2ccccc2)c1NC(=O)Nc1cc(C2CC2)nn1-c1ccccc1` [Example 1, 1-(3-cyclopropyl-1-phenyl-1H-pyrazol-5-yl)-3-(1′,4-dimethyl-1-phenyl-1H,1′H-[3,4′-bipyrazol]-5-yl)urea]: the IC50 was under 100 nM. To `Cc1cc(NC(=O)Nc2c(C)c(-c3cnn(C)c3)nn2-c2ccccc2)n(-c2ccccc2)n1` [Example 2, 1-(1′,4-dimethyl-1-phenyl-1H,1′H-[3,4′-bipyrazol]-5-yl)-3-(3-methyl-1-phenyl-1H-pyrazol-5-yl)urea] belongs 100 to 1000 nM; to `Cc1c(-c2ccc(=O)n(C)c2)nn(-c2ccccc2)c1NC(=O)Nc1cc(C(F)(F)F)nn1-c1ccccc1` [Example 4, 1-(4-methyl-3-(1-methyl-6-oxo-1,6-dihydropyridin-3-yl)-1-phenyl-1H-pyrazol-5-yl)-3-(1-phenyl-3-(trifluoromethyl)-1H-pyrazol-5-yl)urea], under 100 nM.

Regarding `Cc1c(-c2ccn(C)c(=O)c2)nn(-c2ccccc2)c1NC(=O)Nc1cc(C(F)(F)F)nn1-c1ccccc1` [Example 5, 1-(4-methyl-3-(1-methyl-2-oxo-1,2-dihydropyridin-4-yl)-1-phenyl-1H-pyrazol-5-yl)-3-(1-phenyl-3-(trifluoromethyl)-1H-pyrazol-5-yl)urea], the IC50 was under 100 nM. Consider `Cc1c(-c2cnn(C)c2)nn(-c2ccccc2)c1NC(=O)Nc1c(C)c(C(F)(F)F)nn1-c1ccccc1` [Example 6, 1-(1′,4-dimethyl-1-phenyl-1H,1′H-[3,4′-bipyrazol]-5-yl)-3-(4-methyl-1-phenyl-3-(trifluoromethyl)-1H-pyrazol-5-yl)urea], for which the IC50 is 100 to 1000 nM. To `Cc1c(-c2cnn(C)c2)nn(-c2ccccc2)c1NC(=O)Nc1cc(C2CC2(F)F)nn1-c1ccccc1` (centres unmarked) [Example 7, 1-(3-(2,2-difluorocyclopropyl)-1-phenyl-1H-pyrazol-5-yl)-3-(1′,4-dimethyl-1-phenyl-1H,1′H-[3,4′-bipyrazol]-5-yl)urea] belongs under 100 nM; to `Cc1c(-c2cnn(C)c2)nn(-c2ccccc2)c1NC(=O)Nc1cc(C(C)C)nn1-c1ccccc1` [Example 8, 1-(1′,4-dimethyl-1-phenyl-1H,1′H-[3,4′-bipyrazol]-5-yl)-3-(3-isopropyl-1-phenyl-1H-pyrazol-5-yl)urea], 100 to 1000 nM. In the case of `Cc1c(-c2cnn(C)c2)nn(-c2ccccc2)c1NC(=O)Nc1cc(CC(F)(F)F)nn1-c1ccccc1` [Example 9, 1-(1′,4-dimethyl-1-phenyl-1H,1′H-[3,4′-bipyrazol]-5-yl)-3-(1-phenyl-3-(2,2,2-trifluoroethyl)-1H-pyrazol-5-yl)urea], the IC50 was 100 to 1000 nM. In the case of `Cc1c(-c2cnn(C)c2)nn(-c2ccccc2)c1NC(=O)Nc1cc(CC(F)(F)F)nn1-c1ccc(F)cc1` [Example 10, 1-(1′,4-dimethyl-1-phenyl-1H,1′H-[3,4′-bipyrazol]-5-yl)-3-(1-(4-fluorophenyl)-3-(2,2,2-trifluoroethyl)-1H-pyrazol-5-yl)urea], the IC50 lay within 100 to 1000 nM. To `COc1ncc(-c2nn(-c3ccccc3)c(NC(=O)Nc3cc(C(F)(F)F)nn3-c3ccccc3)c2C)cn1` [Example 11, 1-(3-(2-methoxypyrimidin-5-yl)-4-methyl-1-phenyl-1H-pyrazol-5-yl)-3-(1-phenyl-3-(trifluoromethyl)-1H-pyrazol-5-yl)urea] belongs under 100 nM.

For the compound `Cc1c(OCCO)nn(-c2ccccc2)c1NC(=O)Nc1cc(C(F)(F)F)nn1-c1ccccc1` [Example 12, 1-(3-(2-hydroxyethoxy)-4-methyl-1-phenyl-1H-pyrazol-5-yl)-3-(1-phenyl-3-(trifluoromethyl)-1H-pyrazol-5-yl)urea], the IC50 is under 100 nM.

For orientation: IC50 means the midpoint of a concentration-inhibition curve.
